Test results from ChEMBL document CHEMBL1201862, “PubChem BioAssay data set” (2004).
Active and inactive are the calls of the source.

Tests used:
[1] = target: T1, Tyrosine-protein phosphatase non-receptor type 7 (Homo sapiens, UniProt P35236); assay type: functional
T1 sequence (P35236 whole entry): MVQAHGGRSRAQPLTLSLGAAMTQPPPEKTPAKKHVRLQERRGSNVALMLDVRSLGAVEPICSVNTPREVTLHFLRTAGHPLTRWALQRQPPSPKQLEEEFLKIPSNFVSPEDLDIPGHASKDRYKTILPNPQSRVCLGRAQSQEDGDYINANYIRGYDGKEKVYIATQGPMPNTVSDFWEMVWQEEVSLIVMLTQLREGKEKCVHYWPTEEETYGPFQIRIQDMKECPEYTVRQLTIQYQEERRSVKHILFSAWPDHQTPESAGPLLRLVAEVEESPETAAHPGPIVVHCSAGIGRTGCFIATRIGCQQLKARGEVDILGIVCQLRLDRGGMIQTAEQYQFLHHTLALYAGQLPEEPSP

[2] = target: Glyceraldehyde-3-phosphate dehydrogenase (Homo sapiens, UniProt P04406)
Chain of Glyceraldehyde-3-phosphate dehydrogenase (P04406 whole entry): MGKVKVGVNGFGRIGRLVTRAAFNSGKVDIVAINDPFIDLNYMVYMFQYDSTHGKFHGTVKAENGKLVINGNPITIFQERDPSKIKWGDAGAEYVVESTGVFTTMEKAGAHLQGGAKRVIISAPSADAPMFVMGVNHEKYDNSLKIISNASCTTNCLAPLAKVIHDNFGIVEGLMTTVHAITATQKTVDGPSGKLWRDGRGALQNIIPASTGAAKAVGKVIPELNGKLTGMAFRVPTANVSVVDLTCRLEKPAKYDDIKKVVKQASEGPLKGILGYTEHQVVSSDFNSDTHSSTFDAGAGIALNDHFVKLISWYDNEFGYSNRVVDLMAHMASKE

[3] = target: T2, Dual specificity protein phosphatase 6 (Rattus norvegicus, UniProt Q64346)
T2 sequence (Q64346 whole entry): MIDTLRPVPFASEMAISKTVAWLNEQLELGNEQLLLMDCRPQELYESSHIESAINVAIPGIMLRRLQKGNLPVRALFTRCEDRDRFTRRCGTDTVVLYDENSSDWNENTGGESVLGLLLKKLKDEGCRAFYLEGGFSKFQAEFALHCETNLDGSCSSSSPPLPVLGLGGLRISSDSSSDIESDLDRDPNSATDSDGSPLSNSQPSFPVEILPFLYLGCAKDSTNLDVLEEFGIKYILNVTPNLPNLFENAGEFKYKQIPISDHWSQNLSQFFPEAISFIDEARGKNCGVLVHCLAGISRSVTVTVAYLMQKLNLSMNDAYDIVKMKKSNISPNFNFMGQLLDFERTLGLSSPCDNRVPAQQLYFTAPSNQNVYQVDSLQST

[4] = target: T3, Dual specificity protein phosphatase 3 (Homo sapiens, UniProt P51452); experiment: SAR VHR1 Fluorescent Assay for In Vitro dose response studies. [Related pubchem assays (depositor defined):AID1654, AID1661, AID1878, AID1992, AID2004, AID2070, AID2085]; assay type: functional
T3 sequence (P51452 whole entry): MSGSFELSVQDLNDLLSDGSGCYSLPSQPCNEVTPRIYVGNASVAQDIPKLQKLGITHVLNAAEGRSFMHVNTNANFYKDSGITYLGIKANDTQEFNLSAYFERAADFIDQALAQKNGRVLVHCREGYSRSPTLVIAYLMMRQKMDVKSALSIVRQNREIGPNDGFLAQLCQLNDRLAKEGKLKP

[5] = target: T3, Dual specificity protein phosphatase 3; experiment: MOA VHR1 Fluorescent secondary assay for identification of redox-state modulating compounds. [Related pubchem assays (depositor defined):AID1654, AID1661, AID1878, AID1957]
[6] = target: T1, Tyrosine-protein phosphatase non-receptor type 7; experiment: redox-dependent HePTP inhibition, mechanism study, biochemical, fluorescence (AID 2068); assay type: functional
[7] = target: T2, Dual specificity protein phosphatase 6; assay type: functional
[8] = target: Acyl-homoserine lactone acylase PvdQ (Pseudomonas aeruginosa (strain LESB58), UniProt Q9I194); experiment: P. aeruginosa PvdQ acylase inhibitors, dose response, biochemical, fluorescence, plate reader and imaging, cherry-picks (AID 493231)
Chain of Acyl-homoserine lactone acylase PvdQ (Q9I194 24-193 limits assumed): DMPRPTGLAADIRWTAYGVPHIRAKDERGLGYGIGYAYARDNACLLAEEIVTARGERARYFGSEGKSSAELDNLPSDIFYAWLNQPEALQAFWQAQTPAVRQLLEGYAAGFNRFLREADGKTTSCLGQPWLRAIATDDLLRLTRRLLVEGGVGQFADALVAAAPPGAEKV
Chain of Acyl-homoserine lactone acylase PvdQ (Q9I194 217-762 limits assumed): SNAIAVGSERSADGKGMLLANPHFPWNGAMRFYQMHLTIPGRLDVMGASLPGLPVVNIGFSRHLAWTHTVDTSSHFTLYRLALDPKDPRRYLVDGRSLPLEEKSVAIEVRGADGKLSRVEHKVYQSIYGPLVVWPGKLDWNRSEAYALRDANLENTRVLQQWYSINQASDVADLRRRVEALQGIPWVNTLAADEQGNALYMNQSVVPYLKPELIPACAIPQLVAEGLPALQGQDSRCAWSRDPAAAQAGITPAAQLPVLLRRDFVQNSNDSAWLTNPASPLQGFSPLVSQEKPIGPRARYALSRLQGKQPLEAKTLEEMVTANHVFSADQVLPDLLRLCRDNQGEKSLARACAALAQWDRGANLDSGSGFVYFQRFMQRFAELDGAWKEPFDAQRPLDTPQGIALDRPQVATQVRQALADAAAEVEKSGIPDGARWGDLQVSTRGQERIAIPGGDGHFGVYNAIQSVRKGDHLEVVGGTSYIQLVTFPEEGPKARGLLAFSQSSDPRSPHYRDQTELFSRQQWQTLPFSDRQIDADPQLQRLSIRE

[9] = target: Heat shock cognate 71 kDa protein (Homo sapiens, UniProt P11142); experiment: In Vitro Hsc70 Dose Response Fluorescence Polarization Assay. [Related pubchem assays: 1072 ]
Chain of Heat shock cognate 71 kDa protein (P11142 whole entry): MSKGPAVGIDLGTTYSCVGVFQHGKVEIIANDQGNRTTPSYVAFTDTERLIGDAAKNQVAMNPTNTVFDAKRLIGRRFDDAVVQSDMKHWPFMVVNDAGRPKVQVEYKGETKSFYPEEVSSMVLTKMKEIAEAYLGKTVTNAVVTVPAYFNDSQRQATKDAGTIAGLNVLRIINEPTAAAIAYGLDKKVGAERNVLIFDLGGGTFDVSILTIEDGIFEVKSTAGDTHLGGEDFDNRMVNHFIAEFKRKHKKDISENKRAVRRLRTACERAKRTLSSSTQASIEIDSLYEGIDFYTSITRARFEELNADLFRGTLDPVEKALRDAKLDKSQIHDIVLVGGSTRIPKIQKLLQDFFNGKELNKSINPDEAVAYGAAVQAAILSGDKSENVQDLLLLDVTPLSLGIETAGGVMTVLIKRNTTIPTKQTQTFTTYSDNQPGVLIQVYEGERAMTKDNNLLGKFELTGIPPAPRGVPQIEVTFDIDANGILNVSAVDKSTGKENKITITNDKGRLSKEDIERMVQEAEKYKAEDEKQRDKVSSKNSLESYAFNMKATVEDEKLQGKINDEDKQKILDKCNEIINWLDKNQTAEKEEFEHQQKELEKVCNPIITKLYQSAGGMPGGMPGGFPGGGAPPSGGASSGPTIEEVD

[10] = target: Heat shock 70 kDa protein 1A (Homo sapiens, UniProt P0DMV8); experiment: Hsp70 inhibitors, SAR follow-up, biochemical, fluorescence polarization (AID 1072)
Chain of Heat shock 70 kDa protein 1A (P0DMV8 whole entry): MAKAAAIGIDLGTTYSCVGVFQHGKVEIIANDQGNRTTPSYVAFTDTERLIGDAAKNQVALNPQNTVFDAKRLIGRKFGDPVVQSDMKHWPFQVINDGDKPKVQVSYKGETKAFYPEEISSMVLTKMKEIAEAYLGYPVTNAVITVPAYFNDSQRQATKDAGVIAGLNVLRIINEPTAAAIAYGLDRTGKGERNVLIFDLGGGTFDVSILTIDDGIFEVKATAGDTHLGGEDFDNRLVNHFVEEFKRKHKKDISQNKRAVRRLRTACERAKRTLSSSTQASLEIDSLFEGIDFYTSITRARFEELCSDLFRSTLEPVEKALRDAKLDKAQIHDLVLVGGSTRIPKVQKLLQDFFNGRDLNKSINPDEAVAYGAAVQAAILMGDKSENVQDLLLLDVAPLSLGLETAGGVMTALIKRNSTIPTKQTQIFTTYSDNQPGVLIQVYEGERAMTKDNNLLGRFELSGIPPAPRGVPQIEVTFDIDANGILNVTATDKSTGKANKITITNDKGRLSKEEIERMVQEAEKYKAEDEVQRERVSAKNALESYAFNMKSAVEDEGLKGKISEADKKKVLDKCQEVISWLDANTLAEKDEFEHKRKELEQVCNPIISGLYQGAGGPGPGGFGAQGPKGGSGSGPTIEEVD

[11] = inhibitors of firefly luciferase expression or activity, dose response, H4 neuroglioma cells, luminescence (AID 1990); assay type: functional, cell-based
[12] = luciferase reporter signal reduction – luminescence, H4-C neuroglioblastoma cells, dose response (AID 2458); assay type: functional, cell-based;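 further: H4 neuroglioblastoma cells stably carrying a luciferase reporter gene fusion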
HEK293 [13] = experiment: PMA/Ionomycin induced NF-kB luciferase assay in 293- NF-kB-Luc stable cells. [Related pubchem assays: 1299, 1270, 1295, 1375, 1287, 1281, 1293, 1291, 1289, 1280, 465, 1364, 1282, 1372, 1365, 1370, 1367, 1366, 1269, 1373, 1292, 1290, 1302, 1371, 1283, 1271, 1294, 1374, 1368, 1369 ]; assay type: functional, cell-based; settings: Homo sapiens
[14] = target: Luciferin 4-monooxygenase (Photinus pyralis, UniProt P08659); experiment: In vitro luciferase assay using purified luciferase. [Related pubchem assays: 1299, 1270, 1295, 1375, 1287, 1281, 1293, 1291, 1289, 1280, 465, 1364, 1282, 1372, 1365, 1370, 1367, 1366, 1266, 1373, 1292, 1290, 1302, 1371, 1283, 1271, 1294, 1374, 1368, 1369 ]
Chain of Luciferin 4-monooxygenase (P08659 whole entry): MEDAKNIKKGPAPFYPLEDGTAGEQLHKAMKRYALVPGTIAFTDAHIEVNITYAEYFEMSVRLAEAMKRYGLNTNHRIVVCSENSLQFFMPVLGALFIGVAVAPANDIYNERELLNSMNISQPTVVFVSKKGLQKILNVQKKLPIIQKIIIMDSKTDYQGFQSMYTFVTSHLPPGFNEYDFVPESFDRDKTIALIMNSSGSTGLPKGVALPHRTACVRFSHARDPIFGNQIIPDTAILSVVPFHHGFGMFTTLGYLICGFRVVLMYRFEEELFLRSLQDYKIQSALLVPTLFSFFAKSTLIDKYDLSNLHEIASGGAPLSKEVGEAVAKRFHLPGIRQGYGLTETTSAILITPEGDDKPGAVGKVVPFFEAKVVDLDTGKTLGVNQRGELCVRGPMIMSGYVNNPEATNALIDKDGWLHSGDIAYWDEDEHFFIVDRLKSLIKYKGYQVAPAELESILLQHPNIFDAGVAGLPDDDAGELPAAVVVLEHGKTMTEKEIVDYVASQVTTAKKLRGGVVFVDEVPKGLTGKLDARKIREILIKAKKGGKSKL

cells = assay type: functional, cell-based
[15] = inhibitors of SNCA 5'UTR-driven reporter translation, confirmation, H4 neuroglioma cells, luminescence (AID 1988); assay type: functional, cell-based
BJ = experiment: cells; assay type: functional, cell-based; settings: Homo sapiens
HEK293 [16] = experiment: PMA/Ionomycin-induced IL-8 production in HEK293- NF-kB-Luc stable cells. [Related pubchem assays: 1299, 1295, 1375, 1287, 1281, 1293, 1291, 1289, 1280, 465, 1364, 1282, 1372, 1365, 1367, 1366, 1266, 1269, 1373, 1292, 1290, 1302, 1371, 1283, 1271, 1294, 1374, 1368, 1369 ]; assay type: functional, cell-based; settings: Homo sapiens
HEK293 [17] = experiment: Cytotoxicity assay in HEK293 cells. [Related pubchem assays (depositor defined):AID1266, AID1269, AID1270, AID1271, AID1280, AID1281, AID1282, AID1283, AID1287, AID1289, AID1290, AID1291, AID1292, AID1293, AID1294, AID1295, AID1299, AID1302, AID1364, AID1365, AID1366, AID1367, AID1369, AID1370, AID1371, AID1372, AID1373, AID1374, AID1375, AID1384 …; assay type: functional, cell-based; settings: Homo sapiens
[18] = inhibitors of SNCA 5'UTR-driven translation, confirmation, luminescence, H4 neuroglioblastoma cells, dose confirmation (AID 2454); assay type: functional, cell-based;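 further: H4 neuroglioblastoma cells carrying an alpha-synuclein 5'UTR luciferase reporter; potency for inhibition of the luciferase signal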
HEK293 [19] = experiment: TNF Induced NF-kB Luciferase in 293-NF-kB-Luc Stable Cells. [Related pubchem assays: 1266, 1299, 1269, 1373, 1292, 1290, 1302, 1371, 1283, 1270, 1295, 1271, 1375, 1294, 1374, 1281, 1293, 1291, 1289, 1280, 465, 1368, 1364, 1282, 1372, 1365, 1369, 1370, 1367, 1366 ]; assay type: functional, cell-based; settings: Homo sapiens
[20] = cytotoxicity in HEK-293T cells, dose response, cytotoxicity control for TCR NF-kB inhibitor project, luminescence, T-cell screen hits (AID 489026); assay type: functional, cell-based;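 further: cells exposed to compound about 14 hours before the viability readout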
[21] = target: T4, Microphthalmia-associated transcription factor (Homo sapiens, UniProt O75030); experiment: TRPM1 promoter luciferase signal decrease, dose response, MITF inhibitor project, cell-based, SK-MEL-5, cherry-picked, set 3 (AID 493073); assay type: functional
T4 sequence (O75030 whole entry): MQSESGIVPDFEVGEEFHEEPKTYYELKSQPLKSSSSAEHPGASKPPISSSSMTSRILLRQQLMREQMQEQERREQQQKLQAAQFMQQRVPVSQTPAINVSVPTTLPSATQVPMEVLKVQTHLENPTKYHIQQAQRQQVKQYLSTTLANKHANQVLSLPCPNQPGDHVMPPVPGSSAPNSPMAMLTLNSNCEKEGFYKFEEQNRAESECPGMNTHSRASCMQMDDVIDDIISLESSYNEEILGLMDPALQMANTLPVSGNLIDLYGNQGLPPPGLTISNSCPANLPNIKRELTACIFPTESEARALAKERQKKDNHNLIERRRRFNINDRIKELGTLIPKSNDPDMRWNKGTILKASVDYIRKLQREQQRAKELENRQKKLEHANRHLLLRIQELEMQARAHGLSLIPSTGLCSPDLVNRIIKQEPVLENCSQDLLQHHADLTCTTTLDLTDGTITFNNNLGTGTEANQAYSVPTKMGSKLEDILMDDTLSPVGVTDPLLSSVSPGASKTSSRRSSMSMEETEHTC

A-375 [22] = experiment: MITF: Counter assay: A375 proliferation Measured in Cell-Based System Using Plate Reader - 2084-03_Inhibitor_Dose_DryPowder_Activity. [Related pubchem assays (depositor defined):AID488944]; assay type: functional; settings: Homo sapiens
A-375 [23] = experiment: A375 melanoma cell viability reduction, dose response, counter-screen for MITF modulator project, cherry-pick samples, set 2 (AID 540335); assay type: functional, cell-based; settings: Homo sapiens
Cytochrome P450 2C9 = Cytochrome P450 2C9 (Homo sapiens, UniProt P11712); settings: Potency
Chain of Cytochrome P450 2C9 (P11712 whole entry): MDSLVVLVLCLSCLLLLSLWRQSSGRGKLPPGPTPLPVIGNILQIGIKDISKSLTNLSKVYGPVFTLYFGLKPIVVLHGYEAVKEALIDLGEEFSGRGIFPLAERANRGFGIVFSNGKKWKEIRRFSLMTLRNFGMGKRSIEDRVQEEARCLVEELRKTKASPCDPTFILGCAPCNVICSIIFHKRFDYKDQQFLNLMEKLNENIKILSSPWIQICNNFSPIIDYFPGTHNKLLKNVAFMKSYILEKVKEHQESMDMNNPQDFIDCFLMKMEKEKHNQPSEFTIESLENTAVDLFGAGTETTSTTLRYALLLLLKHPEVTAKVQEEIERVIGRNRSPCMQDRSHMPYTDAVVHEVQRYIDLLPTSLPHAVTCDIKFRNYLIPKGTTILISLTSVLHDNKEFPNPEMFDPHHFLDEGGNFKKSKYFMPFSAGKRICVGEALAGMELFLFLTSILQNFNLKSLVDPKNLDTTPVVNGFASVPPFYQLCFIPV

Cytochrome P450 2C19 = Cytochrome P450 2C19 (Homo sapiens, UniProt P33261); experiment: qHTS Assay for Inhibitors and Substrates of Cytochrome P450 2C19. [Related pubchem assays: 410 ]; assay type: ADME; settings: read-out: Potency
Chain of Cytochrome P450 2C19 (P33261 whole entry): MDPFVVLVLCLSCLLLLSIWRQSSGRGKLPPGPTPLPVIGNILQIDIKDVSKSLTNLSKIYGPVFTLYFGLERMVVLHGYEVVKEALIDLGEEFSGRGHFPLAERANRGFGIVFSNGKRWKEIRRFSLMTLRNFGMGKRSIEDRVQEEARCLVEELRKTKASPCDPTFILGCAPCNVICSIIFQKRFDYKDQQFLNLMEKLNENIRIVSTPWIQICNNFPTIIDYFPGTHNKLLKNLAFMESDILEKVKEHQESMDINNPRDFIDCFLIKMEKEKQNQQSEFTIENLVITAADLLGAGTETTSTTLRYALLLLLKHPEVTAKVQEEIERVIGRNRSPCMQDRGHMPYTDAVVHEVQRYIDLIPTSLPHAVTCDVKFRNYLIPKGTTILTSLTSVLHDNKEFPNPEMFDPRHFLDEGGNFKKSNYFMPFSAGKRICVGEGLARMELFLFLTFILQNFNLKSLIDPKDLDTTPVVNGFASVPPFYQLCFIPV

Cytochrome P450 2D6 = Cytochrome P450 2D6 (Homo sapiens, UniProt P10635); experiment: qHTS Assay for Inhibitors and Substrates of Cytochrome P450 2D6. [Related pubchem assays: 410 ]; assay type: ADME; settings: read-out: Potency
Chain of Cytochrome P450 2D6 (P10635 whole entry): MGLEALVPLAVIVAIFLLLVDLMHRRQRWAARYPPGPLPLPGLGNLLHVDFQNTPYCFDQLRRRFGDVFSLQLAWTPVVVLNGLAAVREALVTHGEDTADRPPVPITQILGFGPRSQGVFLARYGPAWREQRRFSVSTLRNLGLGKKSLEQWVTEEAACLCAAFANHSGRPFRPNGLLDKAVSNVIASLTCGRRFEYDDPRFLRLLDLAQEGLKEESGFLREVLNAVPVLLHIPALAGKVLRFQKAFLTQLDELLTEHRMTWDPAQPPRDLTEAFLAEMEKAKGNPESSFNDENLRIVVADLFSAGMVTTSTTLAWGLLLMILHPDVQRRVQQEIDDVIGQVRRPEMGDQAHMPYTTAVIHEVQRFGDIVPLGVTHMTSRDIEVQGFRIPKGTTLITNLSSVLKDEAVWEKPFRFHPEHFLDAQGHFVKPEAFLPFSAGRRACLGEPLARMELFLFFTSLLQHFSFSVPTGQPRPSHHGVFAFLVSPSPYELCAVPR

## O=c1/c(=C/c2ccco2)sc2nc3cc(Br)cnc3n12
[1]
  IC50: 543 nM (active)
[2]
  IC50: 27.8 µM (active)
[3]
  IC50: 4.4 µM (active)
[4]
  IC50: 1.23 µM (active)
[5]
  IC50: 345 nM (active)
[6]
  IC50: 127 nM (active)
[7]
  IC50: 6.58 µM (active)

## N#CC(c1ccc(Cl)cc1)c1cccc(Cl)n1 (configuration not stated)
[8]
  AC50: 500 nM (active)

## NC(=O)c1cccc2c1NC(C(=O)O)C1CC=CC21 (configuration not stated)
[1]
  IC50: 3000 nM (active)
[2]
  IC50: > 100 µM (not active)
[9]
  IC50: 86 µM (active)
[10]
  IC50: 10.4 µM (active)
[3]
  IC50: 58.6 µM (active)
[7]
  IC50: 55.5 µM (active)

## COc1cc(C2C(C#N)=C(N)Oc3cc(N(C)C)ccc32)cc2c1OCO2 (configuration not stated)
[11]
  EC50: < 100 nM (active)
[12]
  EC50: 96 nM (active)
HEK293 [13]
  EC50: 2.18 µM (active)
[14]
  EC50: > 8 µM (not active)
cells
  EC50: 116 nM (active)
[15]
  EC50: < 100 nM (active)
BJ
  EC50: 121 µM (inconclusive)
HEK293 [16]
  EC50: > 8 µM (not active)
HEK293 [17]
  EC50: > 8 µM (inactive)
[18]
  EC50: 106 nM (active)
HEK293 [19]
  EC50: > 8 µM (not active)
[20]
  IC50: > 80 µM (inactive)
[21]
  AC50: 601 nM (active)
A-375 [22]
  AC50: > 35 µM (active)
A-375 [23]
  AC50: > 35 µM (active)

## CC[C@H]1C(=O)OC[C@@H]1Cc1cncn1C
Cytochrome P450 2C9
  AC50: 12.6 µM (inconclusive)

## COc1ccc2oc(-c3ccccc3)c(OC)c(=O)c2c1 [3,6-DIMETHOXYFLAVONE]
Cytochrome P450 2C19
  AC50: 10 µM (inconclusive)
Cytochrome P450 2D6
  AC50: 39.8 µM (inconclusive)
